Test results reported in patent US7157487B2, “Vla-4 inhibitors” (Daiichi Pharmaceutical Co., Ltd., priority 2000, dated 2007).

Tests used:
[1] = Evaluation of oral bioavailability by mouse bioassay; assay type: in vivo; conditions: 10 mg/kg oral, female Balb/C mice, serum 15 minutes after administration, read-out: Blood level
Description: A test compound was suspended or dissolved in a proper administration medium to give a concentration of 1 mg/ml. To 7 to 9 week old female Balb/C mice, 10 mg/kg of the resulting suspension or solution was orally administered. Fifteen minutes after the administration, blood was collected from the postcava under anesthesia with ether and the serum was separated from it. The concentration of each test compound was determined by estimating the serum level from a calibration curve obtained with VCAM-1/VLA-4 inhibitory activity as an index or measuring the concentration by using LC/MS/MS.

[2] = target: T1, integrins haα4 and β1 (VLA-4) expressed on CHO cells (Homo sapiens, UniProt P05556+P13612); assay: In vitro Evaluation Test (1): binding of Eu3+-hVCAM-1 D1D7-IgG to CHO cells expressing integrins α4 and β1; conditions: inhibition of Eu3+-hVCAM-1 D1D7-IgG binding to CHO cells expressing α4β1; Ki calculated from IC50
T1 construct: expressed in transfected cells; host or cells: CHO cells
Method in brief: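 CHO cells transduced with human α4 and β1 were grown for 2 days. They were incubated 1 h at room temperature with Eu3+-hVCAM-1 D1D7-IgG (diluted to 2 nM before addition) and compound, with or without 6% HSA, in HEPES pH 7.5 containing Ca2+, Mg2+ and 4 mM Mn2+. Time-resolved fluorescence gave IC50; Ki used a Scatchard-derived Kd (0.06–20 nM).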

T1 sequence (P13612 34-1032): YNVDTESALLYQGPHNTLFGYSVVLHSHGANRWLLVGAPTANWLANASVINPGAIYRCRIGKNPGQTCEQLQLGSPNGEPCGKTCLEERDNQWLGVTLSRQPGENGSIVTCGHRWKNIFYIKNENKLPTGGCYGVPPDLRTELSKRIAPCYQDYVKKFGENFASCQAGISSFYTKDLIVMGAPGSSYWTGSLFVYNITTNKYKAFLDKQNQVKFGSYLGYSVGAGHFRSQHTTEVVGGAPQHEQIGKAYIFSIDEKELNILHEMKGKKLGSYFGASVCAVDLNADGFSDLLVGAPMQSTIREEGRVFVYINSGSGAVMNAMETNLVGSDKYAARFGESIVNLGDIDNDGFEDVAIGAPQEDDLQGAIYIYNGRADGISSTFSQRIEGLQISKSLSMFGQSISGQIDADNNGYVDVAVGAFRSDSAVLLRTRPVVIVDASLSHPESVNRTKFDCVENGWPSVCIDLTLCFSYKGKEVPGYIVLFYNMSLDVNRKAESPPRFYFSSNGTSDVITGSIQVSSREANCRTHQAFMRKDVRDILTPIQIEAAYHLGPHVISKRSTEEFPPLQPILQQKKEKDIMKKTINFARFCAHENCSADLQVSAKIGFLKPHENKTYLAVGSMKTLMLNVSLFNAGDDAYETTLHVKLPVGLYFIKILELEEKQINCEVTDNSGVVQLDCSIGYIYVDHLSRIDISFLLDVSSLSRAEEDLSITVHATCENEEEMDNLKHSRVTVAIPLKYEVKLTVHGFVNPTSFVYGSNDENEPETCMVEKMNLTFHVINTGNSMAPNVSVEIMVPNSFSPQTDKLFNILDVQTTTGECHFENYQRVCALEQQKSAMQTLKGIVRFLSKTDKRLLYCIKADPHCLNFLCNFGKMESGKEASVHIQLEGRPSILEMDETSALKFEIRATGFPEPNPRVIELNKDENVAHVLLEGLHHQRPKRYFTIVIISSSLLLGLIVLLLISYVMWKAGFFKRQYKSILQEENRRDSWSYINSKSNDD
T1 sequence (P05556 21-798): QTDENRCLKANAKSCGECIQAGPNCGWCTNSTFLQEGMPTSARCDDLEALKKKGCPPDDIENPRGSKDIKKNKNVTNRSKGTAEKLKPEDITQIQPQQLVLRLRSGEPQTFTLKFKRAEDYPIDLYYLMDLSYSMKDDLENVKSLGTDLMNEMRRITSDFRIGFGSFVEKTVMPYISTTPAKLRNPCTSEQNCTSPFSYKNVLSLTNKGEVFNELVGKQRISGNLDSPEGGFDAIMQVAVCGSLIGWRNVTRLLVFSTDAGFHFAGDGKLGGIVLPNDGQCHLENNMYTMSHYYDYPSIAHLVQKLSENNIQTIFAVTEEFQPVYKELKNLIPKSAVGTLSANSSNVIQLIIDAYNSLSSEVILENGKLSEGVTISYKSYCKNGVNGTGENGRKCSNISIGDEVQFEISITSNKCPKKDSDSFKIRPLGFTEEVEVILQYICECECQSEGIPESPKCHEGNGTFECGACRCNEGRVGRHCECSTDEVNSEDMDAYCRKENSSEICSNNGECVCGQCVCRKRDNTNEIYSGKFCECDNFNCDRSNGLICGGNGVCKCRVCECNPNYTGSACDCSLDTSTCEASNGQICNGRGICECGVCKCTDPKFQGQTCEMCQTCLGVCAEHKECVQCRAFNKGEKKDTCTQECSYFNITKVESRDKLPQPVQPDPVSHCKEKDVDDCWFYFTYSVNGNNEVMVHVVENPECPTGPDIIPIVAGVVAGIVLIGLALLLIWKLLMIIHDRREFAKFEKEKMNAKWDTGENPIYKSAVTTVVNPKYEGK

## CO[C@H]1C[C@@H](CO[C@H]2CC[C@H](C(=O)O)CC2)N(C(=O)Cc2cc(Cl)c(NC(=O)c3cn(C)c4ccccc34)cc2F)C1 [Example 116, trans-4-(1-((5-Chloro-2-fluoro-4-(1-methyl-3-indolylcarbonylamino)phenyl)acetyl)-(4S)-methoxy-(2S)-pyrrolidinylmethoxy)cyclohexanecarboxylic acid]
[1]
  concentration at 15 min: 9400 ng/mL
[2]
  Ki: 2.5 nM

## COC[C@H]1CC[C@@H](CO[C@H]2CC[C@H](C(=O)O)CC2)N1C(=O)Cc1cc(Cl)c(NC(=O)c2nn(C)c3ccccc23)cc1F [Example 166, trans-4-(1-((5-Chloro-2-fluoro-4-((1-methyl-3-indazolylcarbonyl)amino)phenyl)acetyl)-(5R)-methoxymethyl-(2S)-pyrrolidinylmethoxy)cyclohexanecarboxylic acid]
[1]
  concentration at 15 min: 3070 ng/mL
[2]
  Ki: 7.9 nM

## O=C(Cc1cc(Cl)c(Nc2nc3ccccc3o2)cc1F)N1C[C@@H](F)C[C@H]1CO[C@H]1CC[C@H](C(=O)O)CC1 [Example 55, trans-4-(1-(4-(2-Benzoxazolyl)amino-5-chloro-2-fluorophenylacetyl)-(4S)-fluoro-(2S)-pyrrolidinylmethoxy)cyclohexanecarboxylic acid]
[1]
  concentration at 15 min: 2030 ng/mL
[2]
  Ki: 8.5 nM

## CO[C@H]1C[C@@H](CO[C@H]2CC[C@H](C(=O)O)CC2)N(C(=O)Cc2cc(Cl)c(NC(=O)c3nsc4ccccc34)cc2F)C1 [Example 171, trans-4-(1-(5-Chloro-2-fluoro-4-((3-benzo(d)isothiazolylcarbonyl)amino)phenylacetyl)-(4S)-methoxy-(2S)-pyrrolidinylmethoxy)cyclohexanecarboxylic acid]
[1]
  concentration at 15 min: 2730 ng/mL
[2]
  Ki: 5 nM

## Cn1cc(C(=O)Nc2cc(F)c(CC(=O)N3C[C@@H](F)C[C@H]3CO[C@H]3CC[C@H](C(=O)O)CC3)cc2Cl)c2cc(F)ccc21 [Example 74, trans-4-(1-((5-Chloro-2-fluoro-4-(((5-fluoro-1-methyl-3-indolyl)carbonyl)amino)phenyl)acetyl)-(4S)-fluoro-(2S)-pyrrolidinylmethoxy)cyclohexanecarboxylic acid]
[1]
  concentration at 15 min: 14100 ng/mL
[2]
  Ki: 7.7 nM

## O=C(Cc1cc(Cl)c(Nc2nc3cc(F)ccc3s2)cc1F)N1C[C@@H](F)C[C@H]1CO[C@H]1CC[C@H](C(=O)O)CC1 [Example 63, trans-4-(1-(5-Chloro-4-(5-fluoro-2-benzothiazolyl)amino-2-fluorophenylacetyl)-(4S)-fluoro-(2S)-pyrrolidinylmethoxy)cyclohexanecarboxylic acid]
[1]
  concentration at 15 min: 8550 ng/mL
[2]
  Ki: 3.1 nM

## Cn1cc(C(=O)Nc2cc(Cl)c(CC(=O)N3C[C@@H](F)C[C@H]3CO[C@H]3CC[C@H](C(=O)O)CC3)cc2Cl)c2ccccc21 [Example 72, trans-4-(1-(2,5-Dichloro-4-((1-methyl-1H-3-indolylcarbonyl)amino)phenylacetyl)-(4S)-fluoro-(2S)-pyrrolidinylmethoxy)cyclohexanecarboxylic acid]
[1]
  concentration at 15 min: 1880 ng/mL
[2]
  Ki: 4.4 nM

## CO[C@H]1C[C@@H](CO[C@H]2CC[C@H](C(=O)O)CC2)N(C(=O)Cc2cc(Cl)c(NC(=O)c3nn(C)c4ccccc34)cc2F)C1 [Example 121, trans-4-(1-((5-Chloro-2-fluoro-4-(1-methyl-3-indazolylcarbonylamino)phenyl)acetyl)-(4S)-methoxy-(2S)-pyrrolidinylmethoxy)cyclohexanecarboxylic acid]
[1]
  concentration at 15 min: 4410 ng/mL
[2]
  Ki: 3.9 nM

## Cc1ccc(Cl)cc1Nc1nc2ccc(CC(=O)N3C[C@@H](F)C[C@H]3CO[C@H]3CC[C@H](C(=O)O)CC3)c(F)c2o1 [Example 43, trans-4-(1-((2-(5-Chloro-2-methylphenylamino)-7-fluoro-6-benzoxazolyl)acetyl)-(4S)-fluoro-(2S)-pyrrolidinylmethoxy)cyclohexanecarboxylic acid]
[1]
  concentration at 15 min: 1190 ng/mL
[2]
  Ki: 6 nM

## CO[C@H]1CCN(C(=O)Cc2cc(Cl)c(NC(=O)c3nn(C)c4ccccc34)cc2F)[C@@H]1CO[C@H]1CC[C@H](C(=O)O)CC1 [Example 169, trans-4-(1-((5-Chloro-2-fluoro-4-((1-methyl-3-indazolylcarbonyl)amino)phenyl)acetyl)-(3S)-methoxy-(2R)-pyrrolidinylmethoxy)cyclohexanecarboxylic acid]
[1]
  concentration at 15 min: 21800 ng/mL
[2]
  Ki: 16 nM

## C=CCO[C@H]1C[C@@H](CO[C@H]2CC[C@H](C(=O)O)CC2)N(C(=O)Cc2cc(Cl)c(NC(=O)c3cn(C)c4ccccc34)cc2F)C1 [Example 117, trans-4-((4S)-Allyloxy-1-((5-chloro-2-fluoro-4-(1-methyl-3-indolylcarbonylamino)phenyl)acetyl)-(2S)-pyrrolidinylmethoxy)cyclohexanecarboxylic acid]
[1]
  concentration at 15 min: 2930 ng/mL
[2]
  Ki: 5.1 nM

## CC(C)[C@H]1CC[C@@H](CO[C@H]2CC[C@H](C(=O)O)CC2)N1C(=O)Cc1cc(Cl)c(NC(=O)c2cn(C)c3ccccc23)cc1F [Example 173, trans-4-(1-((5-Chloro-2-fluoro-4-((1-methyl-3-indolylcarbonyl)amino)phenyl)acetyl)-(5R)-isopropyl-(2S)-pyrrolidinylmethoxy)cyclohexanecarboxylic acid]
[1]
  concentration at 15 min: 3470 ng/mL
[2]
  Ki: 10 nM

## C[C@H]1CC[C@@H](CO[C@H]2CC[C@H](C(=O)O)CC2)N1C(=O)Cc1cc(Cl)c(NC(=O)c2cn(C)c3ccccc23)cc1F [Example 136, trans-4-(1-((5-chloro-2-fluoro-4-((1-methyl-3-indolyl)carbonylamino)phenyl)acetyl)-(5S)-methyl-(2S)-pyrrolidinylmethoxy)cyclohexanecarboxylic acid]
[1]
  concentration at 15 min: 2500 ng/mL
[2]
  Ki: 5.4 nM

## O=C(O)C1CCC(OC[C@@H]2C[C@H](F)CN2C(=O)Cc2ccc(NC(=O)N3CCc4ccccc43)c(Cl)c2)CC1 (stereo partly drawn) [Example 36, 4-(1-(3-Chloro-4-(1-indolinylcarbonylamino)phenylacetyl)-(4S)-fluoro-(2S)-pyrrolidinylmethoxy)cyclohexanecarboxylic acid]
[1]
  concentration at 15 min: 1100 ng/mL
[2]
  Ki: 1.5 nM

## Cn1cc(C(=O)Nc2cc(F)c(CC(=O)N3C[C@@H](F)C[C@H]3CO[C@H]3CC[C@H](C(=O)O)CC3)cc2F)c2ccccc21 [Example 71, trans-4-(1-(2,5-Difluoro-4-((1-methyl-1H-3-indolylcarbonyl)amino)phenylacetyl)-(4S)-fluoro-(2S)-pyrrolidinylmethoxy)cyclohexanecarboxylic acid]
[1]
  concentration at 15 min: 7340 ng/mL
[2]
  Ki: 18 nM

## COC[C@H]1C[C@@H](CO[C@H]2CC[C@H](C(=O)O)CC2)N(C(=O)Cc2cc(Cl)c(NC(=O)c3cn(C)c4ccccc34)cc2F)C1 [Example 138, trans-4-(1-(5-Chloro-2-fluoro-4-((1-methyl-1H-3-indolylcarbonyl)amino)phenylacetyl)-(4S)-methoxymethyl-(2S)-pyrrolidinylmethoxy)cyclohexanecarboxylic acid]
[1]
  concentration at 15 min: 1260 ng/mL
[2]
  Ki: 15 nM

## Cc1ccccc1Nc1nc2ccc(CC(=O)N3C[C@@H](Sc4ccccc4)C[C@H]3CO[C@H]3CC[C@H](C(=O)O)CC3)cc2o1 [Example 123]
[1]
  concentration at 15 min: 705 ng/mL
[2]
  Ki: 5.8 nM

## Cn1cc(C(=O)Nc2ccc(CC(=O)N3C[C@@H](F)C[C@H]3CO[C@H]3CC[C@H](C(=O)O)CC3)cc2F)c2ccccc21 [Example 70, trans-4-(1-(3-Fluoro-4-(1-methyl-3-indolyl)carbonylaminophenylacetyl)-(4S)-fluoro-(2S)-pyrrolidinylmethoxy)cyclohexanecarboxylic acid]
[1]
  concentration at 15 min: 2800 ng/mL
[2]
  Ki: 7.2 nM

## O=C(O)C1CCC(OC[C@@H]2C[C@H](F)CN2C(=O)Cc2ccc3nc(Nc4ccccc4Cl)oc3c2)CC1 (single isomer, unassigned) [24 (Isomer A)]
[1]
  concentration at 15 min: 2180 ng/mL
[2]
  Ki: 14 nM

## Cn1nc(C(=O)Nc2ccc(CC(=O)N3C[C@@H](F)C[C@H]3CO[C@H]3CC[C@H](C(=O)O)CC3)cc2Cl)c2ccccc21 [Example 89, trans-4-(1-((3-Chloro-4-((1-methyl-3-indazolylcarbonyl)amino)phenyl)acetyl)-(4S)-fluoro-(2S)-pyrrolidinylmethoxy)cyclohexanecarboxylic acid]
[1]
  concentration at 15 min: 10900 ng/mL
[2]
  Ki: 3.6 nM

## Cn1cc(C(=O)Nc2cc(F)c(CC(=O)N3C[C@@H](F)C[C@H]3CO[C@H]3CC[C@H](C(=O)O)CC3)cc2Cl)c2ccccc21 [Example 65, trans-4-(1-((5-Chloro-2-fluoro-4-((1-methyl-3-indolylcarbonyl)amino)phenyl)acetyl)-(4S)-fluoro-(2S)-pyrrolidinylmethoxy)cyclohexanecarboxylic acid]
[1]
  concentration at 15 min: 11500 ng/mL
[2]
  Ki: 4 nM

## O=C(O)C1CCC(OC[C@@H]2C[C@H](F)CN2C(=O)Cc2ccc3nc(Nc4ccccc4Cl)oc3c2F)CC1 (stereo partly drawn) [Example 37, 4-(1-(2-(2-Chlorophenyl)amino-7-fluoro-6-benzoxazolylacetyl)-(4S)-fluoro-(2S)-pyrrolidinylmethoxy)cyclohexanecarboxylic acid]
[1]
  concentration at 15 min: 3690 ng/mL
[2]
  Ki: 6.9 nM

## O=C(Nc1cc(F)c(CC(=O)N2C[C@@H](F)C[C@H]2CO[C@H]2CC[C@H](C(=O)O)CC2)cc1Cl)c1n[nH]c2ccccc12 [Example 172, trans-4-(1-((5-Chloro-2-fluoro-4-(3-indazolylcarbonylamino)phenyl)acetyl)-(4S)-fluoro-(2S)-pyrrolidinylmethoxy)cyclohexanecarboxylic acid]
[1]
  concentration at 15 min: 848 ng/mL
[2]
  Ki: 6.8 nM
